Where “and” joins values, the source holds several entries; their conditions need not be identical. Equal values may be shown once. Read-outs that look alike come from different tables or passages of the source.
How the values were obtained:
[1] = tested on: feline calicivirus (FCV); conditions: previously reported (Irsch et al. 2011), 150 μM S-59 with broad spectrum UVA; cited from earlier work
[2] = tested on: vesicular stomatitis virus (VSV); format: cell-based; conditions: for Log Inact. / Post-Txt Titer / Pre-Txt Titer: 30 μM, listed as amotosalen; for Log inactivation / Post-treatment titer / Pre-treatment titer: 150 μM
[3] = Amotosalen concentration post-UVA in FCV-spiked platelets, HPLC; format: physicochemical
[4] = Residual amotosalen after second illumination (two-wavelength treatment); format: physicochemical; conditions: 15 μM amotosalen, ~3 J/cm^2 each
Description: (§1) Additionally, any two or more wavelengths of narrow bandwidth light are evaluated in combination, such as for example, photochemical treatment of a biological fluid using amotosalen and ultraviolet light of a first peak wavelength and ultraviolet light of a second peak wavelength, sequentially or concurrently. More specifically, in one example pathogen inactivation of E. coli (Gram negative) and S. epidermidis (Gram positive) bacteria was evaluated using amotosalen and the device with LEDs of wavelengths described in Example 8. […] The spiked plasma units were divided into control (no amotosalen+UV light) and treatment (with amotosalen) conditions, with amotosalen used at 15 μM concentration. The units were aliquoted into six-well plates (5 mL/well) for illumination. Pre-illumination samples were taken and control bacterial titers determined using standard colony forming unit assay. […] Data for pre-illumination titers, post-first illumination titer, post-second illumination titer, and post-treatment (after second illumination) residual amotosalen (S-59) are shown in the following Tables 40-41.

[5] = Amotosalen concentration pre- and post-UV in platelets (plasma or PAS/plasma), 340 nm ~7.2 J/cm^2, HPLC
Description: A study was performed to evaluate the photoconversion of amotosalen in platelets in 10000 plasma, as well as function of the platelets over 7 days (Day 3, Day 7) following photochemical treatment using the 340 nm device of the present disclosure. Multiple donor platelet units in 10000 plasma (5 units, ˜278-391 mL) were pooled and split into 5 units of ˜285 mL each, to be used as an untreated control, or treated with amotosalen at different concentrations, with ultraviolet A illumination using the 340 nm device. Amotosalen was added to a concentration of 30, 60, 90 or 110 μM, then pre-illumination (pre-UV) samples were removed for analysis, and the remainder of the units subjected to illumination at ˜7.2 J/cm^2. Post-illumination (Post-UV) samples were then removed for post-treatment analysis.

[6] = S-59 and photoproducts post-treatment in platelets in PAS/plasma, 150 μM amotosalen, liquid chromatography mass spectrometry; format: physicochemical
From the text: As mass spec extinction coefficients for photoproducts were assumed identical as S-59 extinction coefficients, only relative difference in concentrations (μM) between samples are compared in the following Table 9b, rather than absolute concentrations.

[7] = tested on: S. epidermidis; experiment: Amotosalen and two sequential UV light doses (UVC + UVA) treatment of S. epidermidis in plasma, colony forming unit assay; format: cell-based; conditions: 15 μM amotosalen, titer pre-UV 7.51; for Titer Post-Second: ~3 J/cm^2 each
Description: as §1

## Cc1oc2c(C)c3oc(=O)cc(C)c3cc2c1COCCN [S-59, 3-(2-aminoethoxymethyl)-2,5,9-trimethylfuro[3,2-g]chromen-7-one]
[1]
  reduction in titer of caliciviruses (FCV): 1.7-2.4 log 10
[2]; 220 mL, 340 nm LED ~3.0 J/cm^2
  Log Inact.: 2.28 log and 2.39 log
  Post-Txt Titer: 4.32 log10 and 2.85 log10
[2]; 220 mL, INT 100 ~3.0 J/cm^2
  Log Inact.: 2.02 log and 1.97 log
  Post-Txt Titer: 4.58 log10 and 3.27 log10
[2]; 220 mL
  Pre-Txt Titer: 6.60 log10 and 5.24 log10
[2]; 350 mL, 340 nm LED ~3.0 J/cm^2
  Log Inact.: 2.34 log and 2.21 log
  Post-Txt Titer: 4.26 log10 and 3.03 log10
[2]; 350 mL, INT 100 ~3.0 J/cm^2
  Log Inact.: 1.76 log and 1.66 log
  Post-Txt Titer: 4.93 log10 and 3.58 log10
[2]; 350 mL
  Pre-Txt Titer: 6.60 log10 and 5.24 log10
[2]; 340 nm LED ~6.4 J/cm^2
  Log inactivation: 4.6 log
  Post-treatment titer: 1.7 log PFU
[2]; 340 nm unit
  Pre-treatment titer: 6.3 log PFU
[2]; 365 nm LED ~6.4 J/cm^2
  Log inactivation: 3.0 log
  Post-treatment titer: 3.3 log PFU
[2]; 365 nm unit
  Pre-treatment titer: 6.3 log PFU
[2]; INT-100 unit
  Pre-treatment titer: 6.3 log PFU
[2]; INT-100 ~6.4 J/cm^2
  Log inactivation: 3.4 log
  Post-treatment titer: 2.9 log PFU
[3]; 15 μM, 4 hr incubation, 340 nm ~3 J/cm^2
  S-59 post-UVA concentration: 0.6 µM
[3]; 15 μM, 8 hr incubation, 340 nm ~3 J/cm^2
  S-59 post-UVA concentration: 0.6 µM
[3]; 15 μM, 8 hr, 340 nm ~3 J/cm^2 Top Only
  S-59 post-UVA concentration: <1 µM
[3]; 15 μM, 8 hr, 340 nm ~3 J/cm^2 Top/Bottom
  S-59 post-UVA concentration: <1 µM
[3]; 15 μM, 24 hr incubation, 340 nm ~3 J/cm^2
  S-59 post-UVA concentration: 0.6 µM
[3]; 15 μM, 24 hr, 340 nm ~3 J/cm^2 Top Only
  S-59 post-UVA concentration: <1 µM
[3]; 15 μM, 24 hr, 340 nm ~3 J/cm^2 Top/Bottom
  S-59 post-UVA concentration: <1 µM
[3]; 30 μM, 4 hr incubation, 340 nm ~3 J/cm^2
  S-59 post-UVA concentration: 0.8 µM
[3]; 30 μM, 8 hr incubation, 340 nm ~3 J/cm^2
  S-59 post-UVA concentration: 0.9 µM
[3]; 30 μM, 8 hr, 340 nm ~3 J/cm^2 Top Only
  S-59 post-UVA concentration: <1 µM
[3]; 30 μM, 8 hr, 340 nm ~3 J/cm^2 Top/Bottom
  S-59 post-UVA concentration: <1 µM
[3]; 30 μM, 24 hr incubation, 340 nm ~3 J/cm^2
  S-59 post-UVA concentration: 0.8 µM
[3]; 30 μM, 24 hr, 340 nm ~3 J/cm^2 Top Only
  S-59 post-UVA concentration: <1 µM
[3]; 30 μM, 24 hr, 340 nm ~3 J/cm^2 Top/Bottom
  S-59 post-UVA concentration: <1 µM
[3]; 90 μM, 4 hr incubation, 340 nm ~3 J/cm^2
  S-59 post-UVA concentration: 3.8 µM
[3]; 90 μM, 8 hr incubation, 340 nm ~3 J/cm^2
  S-59 post-UVA concentration: 0.9 µM
[3]; 90 μM, 24 hr incubation, 340 nm ~3 J/cm^2
  S-59 post-UVA concentration: 3.3 µM
[3]; 150 μM, 0 hr incubation, 340 nm, more than twice ~3 J/cm^2
  S-59 post-UVA concentration: 2.1 µM
[3]; 150 μM, 0 hr, 340 nm Top Only
  S-59 post-UVA concentration: 10.8 µM
[3]; 150 μM, 0 hr, 340 nm Top/Bottom
  S-59 post-UVA concentration: 7.7 µM
[4]; E. coli plasma, UV 1 265 nm then UV 2 325 nm
  S-59: 4.76 µM
[4]; E. coli plasma, UV 1 265 nm then UV 2 340 nm
  S-59: 3.89 µM
[4]; E. coli plasma, UV 1 265 nm then UV 2 365 nm
  S-59: 8.07 µM
[4]; E. coli plasma, UV 1 280 nm then UV 2 325 nm
  S-59: 4.44 µM
[4]; E. coli plasma, UV 1 280 nm then UV 2 340 nm
  S-59: 3.62 µM
[4]; E. coli plasma, UV 1 280 nm then UV 2 365 nm
  S-59: 7.96 µM
[4]; E. coli plasma, UV 1 325 nm then UV 2 265 nm
  S-59: 4.88 µM
[4]; E. coli plasma, UV 1 325 nm then UV 2 280 nm
  S-59: 4.66 µM
[4]; E. coli plasma, UV 1 340 nm then UV 2 265 nm
  S-59: 4.43 µM
[4]; E. coli plasma, UV 1 340 nm then UV 2 280 nm
  S-59: 4.46 µM
[4]; E. coli plasma, UV 1 365 nm then UV 2 265 nm
  S-59: 8.13 µM
[4]; E. coli plasma, UV 1 365 nm then UV 2 280 nm
  S-59: 8.00 µM
[4]; S. epidermidis plasma, Light 1 265 nm then Light 2 325 nm
  S-59: 4.82 µM
[4]; S. epidermidis plasma, Light 1 265 nm then Light 2 340 nm
  S-59: 3.93 µM
[4]; S. epidermidis plasma, Light 1 265 nm then Light 2 365 nm
  S-59: 8.17 µM
[4]; S. epidermidis plasma, Light 1 280 nm then Light 2 325 nm
  S-59: 4.50 µM
[4]; S. epidermidis plasma, Light 1 280 nm then Light 2 340 nm
  S-59: 3.77 µM
[4]; S. epidermidis plasma, Light 1 280 nm then Light 2 365 nm
  S-59: 8.01 µM
[4]; S. epidermidis plasma, Light 1 325 nm then Light 2 265 nm
  S-59: 4.92 µM
[4]; S. epidermidis plasma, Light 1 325 nm then Light 2 280 nm
  S-59: 4.63 µM
[4]; S. epidermidis plasma, Light 1 340 nm then Light 2 265 nm
  S-59: 4.47 µM
[4]; S. epidermidis plasma, Light 1 340 nm then Light 2 280 nm
  S-59: 4.46 µM
[4]; S. epidermidis plasma, Light 1 365 nm then Light 2 265 nm
  S-59: 8.39 µM
[4]; S. epidermidis plasma, Light 1 365 nm then Light 2 280 nm
  S-59: 8.07 µM
[5]; 30 μM, PAS/Plasma, Post-UV
  Amotosalen concentration: 0.3 µM
[5]; 30 μM, PAS/Plasma, Pre-UV
  Amotosalen concentration: 30.5 µM
[5]; 30 μM, Plasma, Post-UV
  Amotosalen concentration: 1.1 µM
[5]; 30 μM, Plasma, Pre-UV
  Amotosalen concentration: 32.7 µM
[5]; 60 μM, PAS/Plasma, Post-UV
  Amotosalen concentration: 0.7 µM
[5]; 60 μM, PAS/Plasma, Pre-UV
  Amotosalen concentration: 61.2 µM
[5]; 60 μM, Plasma, Post-UV
  Amotosalen concentration: 2.3 µM
[5]; 60 μM, Plasma, Pre-UV
  Amotosalen concentration: 62.0 µM
[5]; 90 μM, PAS/Plasma, Post-UV
  Amotosalen concentration: 1.0 µM
[5]; 90 μM, PAS/Plasma, Pre-UV
  Amotosalen concentration: 90.5 µM
[5]; 90 μM, Plasma, Post-UV
  Amotosalen concentration: 4.0 µM
[5]; 90 μM, Plasma, Pre-UV
  Amotosalen concentration: 89.7 µM
[5]; 110 μM, PAS/Plasma, Post-UV
  Amotosalen concentration: 1.2 µM
[5]; 110 μM, PAS/Plasma, Pre-UV
  Amotosalen concentration: 120.7 µM
[5]; 110 μM, Plasma, Post-UV
  Amotosalen concentration: 5.5 µM
[5]; 110 μM, Plasma, Pre-UV
  Amotosalen concentration: 105.8 µM
[6]; 340 nm, ~3.6 J/cm^2
  Post-illumination concentration (relative, LC-MS): 21.3 µM
[6]; 340 nm, ~7.2 J/cm^2
  Post-illumination concentration (relative, LC-MS): 4.8 µM
[6]; 340 nm, ~10.8 J/cm^2
  Post-illumination concentration (relative, LC-MS): 2.5 µM
[6]; INT100, ~3.6 J/cm^2
  Post-illumination concentration (relative, LC-MS): 37.0 µM
[6]; INT100, ~7.2 J/cm^2
  Post-illumination concentration (relative, LC-MS): 11.6 µM
[6]; INT100, ~10.8 J/cm^2
  Post-illumination concentration (relative, LC-MS): 12.0 µM
[7]; Light 1 265 nm then Light 2 325 nm
  Titer Post-Second: <−0.11
[7]; Light 1 265 nm then Light 2 340 nm
  Titer Post-Second: <−0.11
[7]; Light 1 265 nm then Light 2 365 nm
  Titer Post-Second: <−0.11
[7]; Light 1 265 nm ~3 J/cm^2 (then 325 nm)
  Titer Post-First: 4.19
[7]; Light 1 265 nm ~3 J/cm^2 (then 340 nm)
  Titer Post-First: 4.37
[7]; Light 1 265 nm ~3 J/cm^2 (then 365 nm)
  Titer Post-First: 4.12
[7]; Light 1 280 nm then Light 2 325 nm
  Titer Post-Second: <−0.11
[7]; Light 1 280 nm then Light 2 340 nm
  Titer Post-Second: <−0.11
[7]; Light 1 280 nm then Light 2 365 nm
  Titer Post-Second: <−0.11
[7]; Light 1 280 nm ~3 J/cm^2 (then 325 nm)
  Titer Post-First: 4.13
[7]; Light 1 280 nm ~3 J/cm^2 (then 340 nm)
  Titer Post-First: 4.51
[7]; Light 1 280 nm ~3 J/cm^2 (then 365 nm)
  Titer Post-First: 4.19
[7]; Light 1 325 nm then Light 2 265 nm
  Titer Post-Second: <−0.11
[7]; Light 1 325 nm then Light 2 280 nm
  Titer Post-Second: <−0.11
[7]; Light 1 325 nm ~3 J/cm^2 (then 265 nm)
  Titer Post-First: <−0.11
[7]; Light 1 325 nm ~3 J/cm^2 (then 280 nm)
  Titer Post-First: <−0.11
[7]; Light 1 340 nm then Light 2 265 nm
  Titer Post-Second: <−0.11
[7]; Light 1 340 nm then Light 2 280 nm
  Titer Post-Second: <−0.11
[7]; Light 1 340 nm ~3 J/cm^2 (then 265 nm)
  Titer Post-First: <−0.11
[7]; Light 1 340 nm ~3 J/cm^2 (then 280 nm)
  Titer Post-First: 0.73
[7]; Light 1 365 nm then Light 2 265 nm
  Titer Post-Second: <−0.11
[7]; Light 1 365 nm then Light 2 280 nm
  Titer Post-Second: <−0.11
[7]; Light 1 365 nm ~3 J/cm^2 (then 265 nm)
  Titer Post-First: <−0.11
[7]; Light 1 365 nm ~3 J/cm^2 (then 280 nm)
  Titer Post-First: <−0.11
